Patent publication US9581606B2, “Method for determining depression, kit for analyzing serotonin transporter, and kit for analyzing ubiquitinated serotonin transporter in blood” (MEIJO UNIVERSITY, priority 2011, dated 2017)
Where a SMILES comes first, the peptide text is derived from it. The star is where a group is joined. Cbz = O=C(OCc1ccccc1)*

What was measured:
wild type C57BL/6J mouse = assay: Forced swimming test, control mouse; type: in vivo
Description: (§1) Experimental equipment and procedure: the experimental equipment was a water tank (diameter 15 cm×height 20 cm) containing water (water temperature about 22° C.×depth 13 cm). The wild type C57BL/6J mouse as the control or the model mouse was placed in the water tank, and immediately after that, the immobility time was measured using Scanet MV-10AQ (Brainscience Idea, Co., Ltd. Osaka, Japan) for 10 minutes at intervals of 1 minute.
(§2) 5 or 10 mg/kg sertraline (Pfizer, Groton, CT) suspended in 0.3% carboxymethyl cellulose sodium, and 10 or 20 mg/kg imipramine (Sigma, St. Louis, Mo.) dissolved in a normal saline solution were intraperitoneally administered 30 minutes before the main test. As the control, the solvent was intraperitoneally administered.

[1] = system: MAGE-D1 gene-deficient mouse; assay: Forced swimming test, model mouse; type: in vivo; conditions: for effect on the increase of the immobility time: forced swimming test (FIG. 1)
Source text: The targeting vector (Stratagene: pBlueScript), which allow homologous recombination between the MAGE-D1 gene (Gene bank: NM_019791.2) exon and the drug (G418)-resistant gene (GenBank: U00004.1), was electroporated into the embryonic stem (ES) cells (acquired from Research Institute of National Center for Geriatrics and Gerontology) derived from the 129Svj mouse, and the drug-resistant colony was selected. The homologous recombinant was identified from the selected resistant colony by Southern blotting. The desired homologous recombinant ES cell clone thus identified was injected into the blastocyst stage embryo of the C57BL/6J mouse, thereby making a chimera mouse. The chimera mouse was mated with the wild type C57BL/6J mouse, thereby making a hetero MAGE-D1 gene-deficient mouse of F1 generation. The wild type C57BL/6J was mated with the hetero MAGE-D1 gene-deficient mouse up to the F10 generation, and the mouse having 99.9 percent (as a result of one mating with the C57BL/6J mouse, about half the genes of the newborn mouse are derived from the C57BL/6J mouse used for mating; in other words, as a result of the n times of mating with the C57BL/6J mouse, about [1−(1/2)^n+1]×100% genes are likely derived from the C57BL/6J mouse) C57BL/6J genetic background was used. The mouse having the genetic background was used as the MAGE-D1 gene-deficient mouse (hereinafter may be referred to as model mouse) in the following test.
as §1, §2

[2] = system: serotonin transporter protein; assay: Expression amount of serotonin transporter protein in established lymphocytes (Western blotting); type: cell-based, human; conditions: for expression amount of the serotonin transporter: MG132 20 μM, 4 hours, control = healthy subjects without MG132
Description: (§3) The mouse brain sample, cells, and established lymphocytes were subjected to ultrasonic fragmentation at 4° C. using a sonicator in a lysis buffer [20 mM Tris-HCl, 150 mM NaCl, 50 mM NaF, 1 mM EDTA, 1 mM EGTA, 1% (w/v) TRITONX-100, 1 mM sodium orthovanadate, 0.1% (w/v) SDS, 1% (w/v) sodium deoxycholate, 0.5 mM dithiothreitol, 10 mM sodium pyrophosphate decahydrate, 1 mM phenylmethylsulfonyl fluoride, 10 μg/mL aprotinin, 10 μg/mL leupeptin, and 10 μg/mL pepstatin (pH 7.4)], and thus a homogenate was obtained through these operations. The homogenate was centrifuged for 20 minutes at 4° C. and 13000×g, and the supernatant thus obtained was used. A sample buffer [0.125 M Tris-HCl (pH 6.8), 2% (w/v) SDS, 5% (w/v) glycerol, 0.002% (w/v) bromophenol blue, and 5% (w/v) 2-mercaptoethanol] was added to each of the supernatant samples whose protein content had been adjusted, and then boiled at 95° C. for 5 minutes. Thereafter, the protein (20 μg) was subjected to electrophoresis using a 10% polyacrylamide gel, the protein was transferred to a polyvinylidene difluoride (PVDF) membrane (Millipore Corporation, Billerica, Mass., USA), and blocked using Detector Block Kit (Kirkegaard and Perry Laboratories, Gaithersburg, Md., USA). A primary antibody (anti-SERT) (Millipore, Billerica, Mass.) against the serotonin transporter protein was added to the PVDF membrane, allowed to stand overnight in a refrigerator (4° C.), and then a secondary antibody (HRP-conjugated anti-rabbit IgG) (Kirkegaard and Perry Laboratories) was added, and allowed to stand at room temperature for 3 hours. The luminescence due to the immune complex was detected using ECL (GE Healthcare Biosciences, Piscataway, N.J., USA), which is a Western blotting detection reagent, and the expression amount was calculated by the image analysis of the luminescence intensity.
Subsequently, in order to determine the expression amount of the β-actin protein as the endogenous reference material, stripping was carried out, a primary antibody (anti-β-actin) (Santa Cruz Biotechnology, Santa Cruz, Calif.) was added, and incubated. In the result thus obtained, the band of the serotonin transporter protein was corrected by the band of the β actin protein, and the expression amount to the control group was expressed in terms of the percentage (%).
Each of the blood samples aseptically collected from the above objects was diluted two folds with a sterile normal saline solution. Subsequently, the diluted blood sample was quietly poured into the tube containing 3.5 ml of the Ficoll-Paque liquid (General Electric Company, Uppsala, Sweden), and centrifuged at 600×g for 30 minutes. […]

[3] = system: ubiquitinated serotonin transporter protein; assay: Expression amount of ubiquitinated serotonin transporter protein in established lymphocytes (UBIQAPTURE-Q kit, Western blotting); type: cell-based, human; conditions: MG132 20 μM, 4 hours
Description: as §3, with “A primary antibody (anti-SERT) (Millipore, Billerica, Mass.) against the serotonin transporter protein was added to the PVDF membrane, allowed to stand overnight in a refrigerator (4° C.), and then a secondary antibody (HRP-conjugated anti-rabbit IgG) (Kirkegaard and Perry Laboratories) was added, and allowed to stand at room temperature for 3 hours.” left out, “intensity. […]” for “intensity.”
According to the procedure in the above-described A (5), the ubiquitinated protein was isolated from the homogenate homogenized with a lysis buffer using UBIQAPTURE-Q kit (Enzo Life Sciences International, Inc, Plymouth Meeting, Pa.), and the ubiquitinated serotonin transporter protein was detected by Western blotting under the same conditions as in the A (5). […]

[4] = 10 mg/kg intraperitoneally 30 minutes before test
[5] = 20 mg/kg intraperitoneally 30 minutes before test
[6] = established lymphocytes from patients with depression to whom the antidepressant was not effective
[7] = 5 mg/kg intraperitoneally 30 minutes before test

CN(C)CCCN1c2ccccc2CCc2ccccc21 [imipramine]
average of the immobility time ratio (wild type C57BL/6J mouse; [4]): 47.7% | average of the immobility time ratio (wild type C57BL/6J mouse; [5]): 39.0% | average of the immobility time ratio [1, 4]: 60.2% | average of the immobility time ratio [1, 5]: 40.6% | effect on the increase of the immobility time [1]: significantly and dose-dependently decreased

CC(C)C[C@@H](C=O)NC(=O)[C@H](CC(C)C)NC(=O)[C@H](CC(C)C)NC(=O)OCc1ccccc1 [MG132] (Cbz-Leu-Leu-Leu-aldehyde)
expression amount of the serotonin transporter ([2]; established lymphocytes from healthy subjects): 173.8% | expression amount of the serotonin transporter ([2]; established lymphocytes from patients with depression to whom the antidepressant was effective): 141.9% | expression amount of the serotonin transporter [2, 6]: 143.6% | effect of addition on the expression amount of the serotonin transporter ([2]; established lymphocytes of the patients with depression, regardless of effect of the antidepressant): did not significantly increase | expression amount of the ubiquitinated serotonin transporter ([3]; established lymphocytes from healthy subjects, control = healthy subjects without MG132): 130.6% | expression amount of the ubiquitinated serotonin transporter ([3]; established lymphocytes from patients with depression to whom fluvoxamine was effective): 103.4% | expression amount of the ubiquitinated serotonin transporter [3, 6]: 88.5%

CN[C@H]1CC[C@@H](c2ccc(Cl)c(Cl)c2)c2ccccc21 [sertraline]
average of the immobility time ratio (wild type C57BL/6J mouse; [7]): 37.4% | average of the immobility time ratio (wild type C57BL/6J mouse; [4]): 37.7% | average of the immobility time ratio [1, 7]: 56.3% | average of the immobility time ratio [1, 4]: 45.7% | effect on the increase of the immobility time [1]: significantly and dose-dependently decreased
